Results reported in article PMC7216583 (Parasites & Vectors, 2020).
Structures can show the parent of a compound that is named as a salt. Where two headings read alike, the source gives them in different places.

Columns and labels:
[1] = test system: Toxoplasma gondii RH-2F tachyzoites; assay: microbe, parasite or virus in culture; conditions: 72 h
HIV-I integrase (IN) = biological target: HIV-I integrase (IN); design: method as in S-inhibitor; conditions: ref S-inhibitor; cited from earlier work
[2] = design: method as in library vendor description; conditions: target not given; ref library vendor description; read-out: IC50 (DNA-damaging agent); cited from earlier work
TBK1 = test system: TBK1; design: method as in library vendor description; conditions: ref library vendor description; cited from earlier work
PDK-1 = test system: PDK-1; design: method as in library vendor description; conditions: ref library vendor description; read-out: IC50 PDK-1; cited from earlier work
IKKε = test system: IKKε; design: method as in library vendor description; conditions: ref library vendor description; cited from earlier work
microtubule [3] = test system: microtubule; design: method as in S-inhibitor; conditions: ref S-inhibitor; cited from earlier work
HCV polymerase = biological target: HCV polymerase; design: method as in S-inhibitor; conditions: ref S-inhibitor; cited from earlier work
c-Raf = test system: c-Raf; design: method as in library vendor description; conditions: ref library vendor description; cited from earlier work
KDR = test system: KDR; design: method as in library vendor description; conditions: ref library vendor description; cited from earlier work
c-Kit [4] = test system: c-Kit; design: method as in library vendor description; conditions: ref library vendor description; cited from earlier work
Lck = test system: Lck; design: method as in library vendor description; conditions: ref library vendor description; cited from earlier work
Flt = test system: Flt; design: method as in library vendor description; conditions: ref library vendor description; cited from earlier work
CSF-1R = test system: CSF-1R; design: method as in library vendor description; conditions: ref library vendor description; cited from earlier work
LPDE4 = test system: LPDE4; design: method as in S-inhibitor; conditions: ref S-inhibitor; cited from earlier work
HPDE4 = test system: HPDE4; design: method as in S-inhibitor; conditions: ref S-inhibitor; cited from earlier work
ROCK = test system: ROCK; design: method as in S-inhibitor; conditions: ref S-inhibitor; cited from earlier work
sterol C14ɑ demethylase = biological target: sterol C14ɑ demethylase; design: method as in library vendor description; conditions: ref library vendor description; cited from earlier work
Ron = test system: Ron; design: method as in library vendor description; conditions: ref library vendor description; cited from earlier work
VEGFR1 = test system: VEGFR1; design: method as in library vendor description; conditions: ref library vendor description; cited from earlier work
Tie2 = test system: Tie2; design: method as in library vendor description; conditions: ref library vendor description; cited from earlier work
[5] = test system: Toxoplasma gondii RH-2F tachyzoites; conditions: preliminary screen, mean
[6] = test system: human foreskin fibroblasts (HFFs)
VEGFR3 = test system: VEGFR3; design: method as in library vendor description; conditions: ref library vendor description; cited from earlier work
microtubule [7] = test system: microtubule; design: method as in library vendor description; conditions: ref library vendor description; cited from earlier work
Aurora B = test system: Aurora B; design: method as in S-inhibitor; conditions: ref S-inhibitor; cited from earlier work
in vitro = conditions: human, Host viability (%) mean
Aurora C = test system: Aurora C; design: method as in S-inhibitor; conditions: ref S-inhibitor; cited from earlier work
Aβ42 = test system: Aβ42; design: method as in library vendor description; conditions: γ-secretase inhibitor; ref library vendor description; cited from earlier work
Aβ40 = test system: Aβ40; design: method as in library vendor description; conditions: γ-secretase inhibitor; ref library vendor description; cited from earlier work
Endothelin A (ETA) = test system: Endothelin A (ETA); design: method as in S-inhibitor; conditions: ref S-inhibitor; cited from earlier work
JAK1 = conditions: read-out: IC50, JAK1; ref S-inhibitor; cited from earlier work
JAK3 = conditions: read-out: IC50, JAK3; ref S-inhibitor; cited from earlier work
HDAC8 = test system: HDAC8; design: method as in S-inhibitor; conditions: ref S-inhibitor; cited from earlier work
HDAC3 = test system: HDAC3; design: method as in S-inhibitor; conditions: ref S-inhibitor; cited from earlier work
human 17,20-lyase = biological target: human 17,20-lyase; design: method as in library vendor description; conditions: ref library vendor description; cited from earlier work
rat 17,20-lyase = biological target: rat 17,20-lyase; design: method as in library vendor description; conditions: ref library vendor description; cited from earlier work
KSP (HsEg5) = biological target: KSP (HsEg5); design: method as in S-inhibitor; conditions: ref S-inhibitor; cited from earlier work
VEGFR2 = test system: VEGFR2; design: method as in S-inhibitor; conditions: ref S-inhibitor; cited from earlier work
c-Kit [8] = test system: c-Kit; design: method as in S-inhibitor; conditions: ref S-inhibitor; cited from earlier work
PDGFRα = test system: PDGFRα; design: method as in S-inhibitor; conditions: ref S-inhibitor; cited from earlier work
ROCK1 = test system: ROCK1; design: method as in S-inhibitor; conditions: ref S-inhibitor; cited from earlier work
ROCK2 = test system: ROCK2; design: method as in S-inhibitor; conditions: ref S-inhibitor; cited from earlier work
PI3Kγ = test system: PI3Kγ; design: method as in library vendor description; conditions: ref library vendor description; cited from earlier work
PI3Kα = test system: PI3Kα; design: method as in library vendor description; conditions: ref library vendor description; cited from earlier work
mTOR = test system: mTOR; design: method as in library vendor description; conditions: ref library vendor description; cited from earlier work
PI3Kβ = test system: PI3Kβ; design: method as in library vendor description; conditions: ref library vendor description; cited from earlier work
PI3Kδ = test system: PI3Kδ; design: method as in library vendor description; conditions: ref library vendor description; cited from earlier work
[9] = biological target: farnesyltransferase (FTase); design: method as in S-inhibitor; conditions: ref S-inhibitor; cited from earlier work
Bcl-w = biological target: Bcl-w; design: method as in library vendor description; conditions: ref library vendor description; cited from earlier work
MAO-B = test system: MAO-B; design: method as in S-inhibitor; conditions: ref S-inhibitor; cited from earlier work
Flk-1/KDR = biological target: Flk-1/KDR; design: method as in S-inhibitor; conditions: ref S-inhibitor; cited from earlier work
PDGFRβ = biological target: PDGFRβ; design: method as in S-inhibitor; conditions: ref S-inhibitor; cited from earlier work
mTORC2 = test system: mTORC2; design: method as in library vendor description; conditions: ref library vendor description; cited from earlier work
mTORC1 = test system: mTORC1; design: method as in library vendor description; conditions: ref library vendor description; cited from earlier work
[10] = read-out: Parasite inhibition (%) mean, preliminary screen, mean
[11] = read-out: Parasite inhibition (%) mean

Compound: Cn1c(N2CCCCS2(=O)=O)nc(C(=O)NCc2ccc(F)cc2)c(O)c1=O [BMS-707035]
- inhibition of growth at 5 µM [1, 10]: 0.2%
- IC50 (HIV-I integrase (IN)): 0.015 µM

Compound: Cn1c(CCCC(=O)O)nc2cc(N(CCCl)CCCl)ccc21 [Bendamustine HCL]
- inhibition of growth at 5 µM [1, 11]: 0.4%
- IC50 [2]: 50 µM

Compound: O=C(NCCCNc1nc(Nc2cccc(NC(=O)N3CCCC3)c2)ncc1I)c1cccs1 [BX-795]
- inhibition of growth at 5 µM [1, 10]: 0.7%
- IC50 (TBK1): 0.006 µM
- IC50 (PDK-1): 0.111 µM
- IC50 (IKKε): 0.041 µM

Compound: C/C(=C\c1csc(C)n1)[C@H]1C[C@@H]2O[C@]2(C)CCC[C@H](C)[C@H](O)[C@@H](C)C(=O)C(C)(C)[C@H](O)CC(=O)O1 [Epothilone B (EPO906)]
- EC0.01, microtubule stabilization (microtubule [3]): Epothilone B is a Taxol-like microtubule-stabilizing agent with EC0.01 of 1.8 μM.
- inhibition of growth at 5 µM [1, 11]: 36.5%

Compound: CC(C)(C)C#Cc1cc(N(C(=O)[C@H]2CC[C@H](C)CC2)[C@H]2CC[C@H](O)CC2)c(C(=O)O)s1 [VX-222]
- IC50 (HCV polymerase): 0.94 to 1.2 µM
- inhibition of growth at 5 µM [1, 10]: 9.6%

Compound: O=C(Nc1ccc(OC(F)(F)F)cc1)c1sccc1NCc1ccnc2ccccc12 [OSI-930]
- IC50 (c-Raf): 0.041 µM
- IC50 (KDR): 0.009 µM
- IC50 (c-Kit [4]): 0.08 µM
- inhibition of growth at 5 µM [1, 10]: 1%
- IC50 (Lck): 0.022 µM
- IC50 (Flt): 0.008 µM
- IC50 (CSF-1R): 0.015 µM

Compound: COc1ccc(C2(C#N)CCC(C(=O)O)CC2)cc1OC1CCCC1 (stereo not shown) [Cilomilast (SB-207499)]
- inhibition of growth at 5 µM [1, 10]: 65.2%
- IC50 (LPDE4): 0.1 µM
- IC50 (HPDE4): 0.12 µM

Compound: O=C(NCc1ccccc1)c1csc(Nc2ccncn2)n1 [Thiazovivin]
- IC50 (ROCK): ~0.5 µM
- inhibition of growth at 5 µM [1, 10]: -0.7%

Compound: CC[C@@H]([C@H](C)O)n1ncn(-c2ccc(N3CCN(c4ccc(OC[C@@H]5CO[C@@](Cn6cncn6)(c6ccc(F)cc6F)C5)cc4)CC3)cc2)c1=O [Posaconazole]
- IC50 (sterol C14ɑ demethylase): 0.00025 µM
- inhibition of growth at 5 µM [1, 10]: 0.6%

Compound: MGCD-265
- IC50 (Ron): 0.002 µM
- IC50 (VEGFR1): 0.003 µM
- IC50 (Tie2): 0.007 µM
- Parasite inhibition (%) mean [5]: 88.8%
- Host viability (%) mean [6]: 68.1%
- IC50 (VEGFR3): 0.004 µM

Compound: C/C(=C\c1csc(C)n1)[C@@H]1C[C@@H]2O[C@@H]2CCC[C@H](C)[C@H](O)[C@@H](C)C(=O)C(C)(C)[C@@H](O)CC(=O)O1 [Epothilone A]
- EC0.01 microtubule-stabilizing (microtubule [7]): Epothilone A is a Taxol-like microtubule-stabilizing agent with EC0.01 of 2 μM.
- inhibition of growth at 5 µM [1, 10]: 20.4%

Compound: CCc1cccc(CC)c1NC(=O)N1Cc2n[nH]c(NC(=O)c3ccc(N4CCN(C)CC4)cc3)c2C1 [PHA-680632]
- IC50 (Aurora B): 0.135 µM
- inhibition of growth at 5 µM [1, 10]: 88.8%
- viability at 72 h (in vitro): 45.2%
- IC50 (Aurora C): 0.12 µM

Compound: NC(=O)[C@@H](CCC(F)(F)F)N(Cc1ccc(-c2ncon2)cc1F)S(=O)(=O)c1ccc(Cl)cc1 [BMS-708163 (Avagacestat)]
- IC50 (Aβ42): 0.00027 µM
- IC50 (Aβ40): 0.0003 µM
- inhibition of growth at 5 µM [1, 10]: 8.7%

Compound: COc1nc(C)cnc1NS(=O)(=O)c1cccnc1-c1ccc(-c2nnco2)cc1 [Zibotentan (ZD4054)]
- inhibition of growth at 5 µM [1, 10]: 1.8%
- IC50 (Endothelin A (ETA)): 0.021 µM

Compound: N#CC[C@H](C1CCCC1)n1cc(-c2ncnc3[nH]ccc23)cn1 [Ruxolitinib (INCB018424)]
- inhibition of growth at 5 µM [1, 10]: 10.2%

Compound: Cc1cc(Cl)ccc1OCCCC(=O)NO [Droxinostat]
- IC50 (HDAC8): 1.46 µM
- inhibition of growth at 5 µM [1, 10]: 7.2%
- IC50 (HDAC3): 16.9 µM

Compound: CNC(=O)c1ccc2cc(C3(O)CCn4cncc43)ccc2c1 (stereo not shown) [TAK-700 (Orteronel)]
- IC50 (human 17,20-lyase): 0.038 µM
- inhibition of growth at 5 µM [1, 10]: 0.9%
- IC50 (rat 17,20-lyase): 0.054 µM

Compound: Cc1ccc(C(=O)N(CCCN)[C@@H](c2nc3cc(Cl)ccc3c(=O)n2Cc2ccccc2)C(C)C)cc1 [Ispinesib (SB-715992)]
- inhibition of growth at 5 µM [1, 10]: 2.1%
- Ki (KSP (HsEg5)): 0.0017 µM

Compound: COc1cc2nccc(Oc3ccc(NC(=O)Nc4ccc(F)cc4F)c(F)c3)c2cc1OC [Ki8751]
- IC50 (VEGFR2): 0.0009 µM
- IC50 (c-Kit [8]): 0.04 µM
- inhibition of growth at 5 µM [1, 10]: -45.8%
- IC50 (PDGFRα): 0.067 µM

Compound: CC1=C(C(=O)Nc2cc3cn[nH]c3cc2F)C(c2ccc(C(F)(F)F)cc2)CC(=O)N1 (stereo not shown) [GSK429286A]
- IC50 (ROCK1): 0.014 µM
- inhibition of growth at 5 µM [1, 10]: 0.9%
- IC50 (ROCK2): 0.063 µM

Compound: O=C1NC(=O)/C(=C/c2ccc3nccc(-c4ccncc4)c3c2)S1 [GSK1059615]
- IC50 (PI3Kγ): 0.005 µM
- IC50 (PI3Kα): 0.0004 µM
- IC50 (mTOR): 0.012 µM
- inhibition of growth at 5 µM [1, 10]: 40.6%
- IC50 (PI3Kβ): 0.0006 µM
- IC50 (PI3Kδ): 0.002 µM

Compound: Cn1cncc1[C@@](N)(c1ccc(Cl)cc1)c1ccc2c(c1)c(-c1cccc(Cl)c1)cc(=O)n2C [Tipifarnib (Zarnestra)]
- IC50 [9]: 0.0006 µM
- inhibition of growth at 5 µM [1, 10]: 6.5%

Compound: CC1(C)CCC(c2ccc(Cl)cc2)=C(CN2CCN(c3ccc(C(=O)NS(=O)(=O)c4ccc(N[C@H](CCN5CCOCC5)CSc5ccccc5)c(S(=O)(=O)C(F)(F)F)c4)cc3)CC2)C1 [ABT-263 (Navitoclax)]
- inhibition of growth at 5 µM [1, 10]: 33.5%
- Ki (Bcl-w): ≤ 0.001 µM

Compound: C[C@H](NCc1ccc(OCc2cccc(F)c2)cc1)C(N)=O [Safinamide Mesylate (FCE28073)]
- inhibition of growth at 5 µM [1, 10]: 5.9%

Compound: Cc1[nH]c(/C=C2\C(=O)Nc3ccccc32)c(C)c1CCC(=O)O [TSU-68 (SU6668)]
- Ki (Flk-1/KDR): 2.1 µM
- Ki (PDGFRβ): 0.008 µM
- inhibition of growth at 5 µM [1, 10]: 2.8%

Compound: COc1ccc(-c2ccc3c(N4CCOCC4)nc(N4C[C@@H](C)O[C@@H](C)C4)nc3n2)cc1CO [Ku-0063794]
- inhibition of growth at 5 µM [1, 10]: 31.4%
